Experimental data reported in US12213977B2, “Methods and compositions for treating melanoma” (THE REGENTS OF THE UNIVERSITY OF CALIFORNIA, priority 2017, dated 2025).
“Also recorded” adds a separate entry of the source. Where a SMILES comes first, the peptide text is derived from it. The star is where a group is joined. Cbz = O=C(OCc1ccccc1)*; CH2F = FC*

B1: IFNγ: Recombinant IFNγ, cytokine secreted by T cells, obtained from Peprotech (protein, UniProt P01579 24-161, looked up)
Interferon gamma: QDPYVKEAENLKKYFNAGHSDVADNGTLFLGILKNWKEESDRKIMQSQIVSFYFKLFKNFKDDQSIQKSVETIKEDMNVKFFNSNKKKRDDFEKLTNYSVTDLNVQRKAIHELIQVMAELSPAAKTGKRKRSQMLFRG

How the values were obtained:
melanoma cell lines [1] = test: CTRP pharmacogenomics drug sensitivity (AUC) across melanoma cell lines grouped by predicted differentiation subtype; assay type: cell-based; settings: for specificity of cell death-inducing compound for dedifferentiated melanoma cells: CTRP drug sensitivity profiles by subtype; for sensitivity (CTRP AUC) with increased dedifferentiation status: melanoma cell lines by predicted subtype, ANOVA P<0.01, irrespective of mutation status
Description: Through the prediction of subtypes from the CCLE and GDSC dataset, the inventors utilized the matching drug sensitivity profiles available from the pharmacogenomics-based Cancer Therapeutics Response Portal (CTRP) (Seashore-Ludlow et al., 2015). […] These compounds are erastin, (1S,3R)-RSL3, ML162, and M210 (FIG. 3B).
Dataset from Hoek et al of melanoma cell lines was obtained from GSE4845 and batch normalized using ComBat from the R sva package. Dataset from Mica et al for the melanocyte differentiation stage analysis was obtained from GSE45227. Gene expression profiles from samples representing the growth conditions for each specified stage of differentiation based on the original manuscript was used for analysis (day 0 embryonic stem cell, day 6 neural crest cell, day 11 melanoblast, and day 25 melanocyte). Primary melanocyte expression profiles (adult and neonatal) were used as control. Cell line expression profiles from the CCLE and GSDC databases were downloaded from the respective resource websites (http://www.broadinstitute.org/ccle; http://www.cancerrxgene.org/downloads). For each dataset, microarray probes were collapsed to gene symbol to the maximum average probe. To have a gene list compatible for all datasets used, the inventors took an intersection of genes from both RNASeq and microarray chip platforms, resulting in 10,545 genes.
Principal component analysis (PCA) was performed on mean centered data and all statistical analyses were performed in R (http://www.R-project.org/). Projections were calculated by matrix multiplication of the centered data to be projected using the rotation matrix determined from the PCA of the original source data. ANOVA p-values were determined using the non-parametric Kruskal-Wallis test at a significance threshold of 0.05. Reported p-values between pairs of subtypes were determined using Dunn post-hoc testing with multiple hypothesis correction using the Benjamini & Hochberg method. Heatmaps and figures were generated using pheatmap and ggplot2 R packages.

[2] = tested on: human melanoma cell lines of the M series; test: Cell viability dose-response (CellTiter-Glo) across M series melanoma cell lines; assay type: cell-based
Method: (§1) Human melanoma cell lines of the M series were established from patient's biopsies under UCLA IRB approval #11-003254 as previously described (Søndergaard et al., 2010). Cells were cultured in RPMI 1640 with L-glutamine, 10% fetal bovine serum, and 1% penicillin, streptomycin and fungizone in a water-saturated incubator at 37° C. with 5% CO2. Cells were maintained and tested for mycoplasma, and regularly authenticated to their early passages using GenePrint® 10 System (Promega). Presence of mutations in the genes of interest were checked by OncoMap 3 or lontrone, and was confirmed by PCR and Sanger sequencing as previously described (Wong et al., 2014). Vemurafenib (PLX 4032), erastin, Z-VAD-FMK, R428 and piperlongumine were all purchased from Selleck Chemicals. Deferoxamine was obtained from Sigma-Aldrich. Staurosporine was obtained from Cayman Chemicals. Trolox was obtained from Acros Organics. Recombinant TNFα and IFNγ were both obtained from Peprotech. For the BRAFi timecourse study, M229 was treated with vemurafenib or DMSO for the indicated timepoints at twice the 50% inhibition concentration (500 nM). For the crystal violet assays, cells for seeded at low density in 6-well plates. The next day media was replaced by drug media and replenished every 2-3 days. Plates were stained with crystal violet solution (1% crystal violet, 10% methanol). Control wells were grown for 1 week and stained when 100% confluent.
All cell viability assays were assayed in 96-well format with 5000 cells seeded per well. Dose-response curves were assayed using CellTiter-Glo luminescent cell viability assay (Promega, G7572). For all other measurements of viable cells, a fluorescent resazurin-based (Sigma-Aldrich, R7017) assay (AlamarBlue) was used with fluorescence measured at 570/600 ex/em wavelength. Percentage cell viability is reported as a percentage relative to the negative control treatment. Measurement of dead cells per time was measured by incubating treated cells with the IncuCyte Cytotox Red Reagent and imaging with IncuCyte ZOOM Live-Cell Imaging System (Essen BioScience). […]

[3] = tested on: M229, M397 and M249 melanoma cell lines; test: Crystal violet staining (clonogenic) assays of long-term or cytokine combination treatment; assay type: cell-based, human
Method: as §1

[4] = tested on: undifferentiated signature cell lines M296, M410 M229R, and M238R; test: Cell death and rescue assays (resazurin viability, IncuCyte Cytotox Red, trypan blue exclusion); assay type: cell-based, human
Method: All cell viability assays were assayed in 96-well format with 5000 cells seeded per well. Dose-response curves were assayed using CellTiter-Glo luminescent cell viability assay (Promega, G7572). For all other measurements of viable cells, a fluorescent resazurin-based (Sigma-Aldrich, R7017) assay (AlamarBlue) was used with fluorescence measured at 570/600 ex/em wavelength. Percentage cell viability is reported as a percentage relative to the negative control treatment. Measurement of dead cells per time was measured by incubating treated cells with the IncuCyte Cytotox Red Reagent and imaging with IncuCyte ZOOM Live-Cell Imaging System (Essen BioScience). Trypan blue exclusion was also used for cell death assays.

melanoma cell lines [5] = test: Immunoblot of differentiation biomarkers (AXL, NGFR, MITF, MART-1) and pERK; assay type: cell-based, human; settings: IFNγ=100 U/mL, TNFα=1000 U/mL; M229, M397, M249
Method: Cells were lysed in modified RIPA buffer (50 mM Tris-HCl (pH 7.5), […], 10 mM β-glycerophosphate, 1% NP-40, 0.25% sodium deoxycholate, 10 mM sodium pyrophosphate, 30 mM sodium fluoride, 1 mM EDTA, 1 mM vanadate, 20 μg/ml aprotinin, 20 μg/ml leupeptin, and 1 mM phenylmethylsulfonyl fluoride). Whole-cell lysates were resolved by SDS-PAGE on TruPAGE 4-15% gradient gels (Sigma-Aldrich) and blotted onto nitrocellulose membranes. Membranes were blocked overnight with 5% milk and then incubated sequentially with primary and then IRDye-conjugated secondary antibodies (Li-Cor). Blots were imaged using the Odyssey Infrared Imaging System (Li-Cor). Primary antibodies used for Western blot analysis were MITF (DGG7V, CST), MART-1 (A103, SCBT), and AXL (C89E7, CST).

Molecule | specificity of cell death-inducing compound for dedifferentiated melanoma cells (melanoma cell lines [1]) | other results
NC(=O)Nc1cc(-c2cccc(F)c2)sc1C(=O)N[C@H]1CCCNC1 [AZD7762] | specificity for dedifferentiated melanoma cells | –
O=c1c2ccccc2nc(/C=C/c2cccnc2)n1Cc1ccccc1 [B02] | specificity for dedifferentiated melanoma cells | –
COc1ccc(C2C(C(=O)Nc3ccccc3)=C(C)N=c3sc(=Cc4cn(Cc5ccccc5)c5ccccc45)c(=O)n32)cc1 (centres unmarked) [BCL-LZH-4] | specificity for dedifferentiated melanoma cells | –
Cc1c[nH]c(-c2cnc(NCCNc3ccc(C#N)cn3)nc2-c2ccc(Cl)cc2Cl)n1 [CHIR-99021] | specificity for dedifferentiated melanoma cells | –
O=C(c1ccc(/C=C/c2n[nH]c3ccccc23)cc1)N1CCNCC1 [KW-2449] | specificity for dedifferentiated melanoma cells | –
COc1cc2nccc(Oc3ccc(NC(=O)Nc4ccc(F)cc4F)c(F)c3)c2cc1OC [Ki8751] | specificity for dedifferentiated melanoma cells | –
Cc1onc(C(=O)N2CCN(C(c3ccc(Cl)cc3)c3ccc(Cl)cc3)CC2)c1[N+](=O)[O-] [M210, ML210] | – | sensitivity (CTRP AUC) with increased dedifferentiation status (melanoma cell lines [1]): increased sensitivity
COc1ccc(N(C(=O)CCl)C(C(=O)NCCc2ccccc2)c2cccs2)cc1Cl (centres unmarked) [ML162] | – | sensitivity (CTRP AUC) with increased dedifferentiation status (melanoma cell lines [1]): increased sensitivity
COc1cc(N2CCC(N3CCN(C)CC3)CC2)ccc1Nc1ncc(Cl)c(Nc2ccccc2S(=O)(=O)C(C)C)n1 [NVP-TAE684] | specificity for dedifferentiated melanoma cells | –
COC(=O)c1ccc([C@H]2c3[nH]c4ccccc4c3C[C@H](C(=O)OC)N2C(=O)CCl)cc1 [RSL3, (1S,3R)-RSL3] | – | sensitivity (CTRP AUC) with increased dedifferentiation status (melanoma cell lines [1]): increased sensitivity; sensitivity in cell lines with vemurafenib-induced dedifferentiation ([2]; acquired resistance lines (P vs R) or long-term adaptive resistance (44 days)): increased sensitivity; sensitivity with dedifferentiation ([2]; across M series melanoma cell lines): increased sensitivity; sensitivity upon IFNγ cytokine treatment ([3]; M249, higher doses (5 μM erastin, 500 nM RSL3)): increased sensitivity; long-term persisting cells ([3]; combined with vemurafenib (1 μM), 16-24 days, M229, M397, M249): substantial decrease; cell death compared to cytokine-only or untreated cells ([3]; in the presence of TNFα or IFNγ, 7 days): increased cell death
Cn1cc(-c2ccc3nnc(Sc4ccc5ncccc5c4)n3n2)cn1 [SGX-523] | specificity for dedifferentiated melanoma cells | –
O=C1c2ccccc2-c2nc3nonc3nc21 [SMER-3] | specificity for dedifferentiated melanoma cells | –
CCc1c2c(nc3ccc(O)cc13)-c1cc3c(c(=O)n1C2)COC(=O)[C@]3(O)CC [SN-38] | specificity for dedifferentiated melanoma cells | –
CC1(C)CC(=O)c2c(C(F)(F)F)nn(-c3ccc(C(N)=O)c(N[C@H]4CC[C@H](O)CC4)c3)c2C1 [SNX-2112] | specificity for dedifferentiated melanoma cells | –
CC(C)[C@H](O)C(=O)N[C@@H](C)C(=O)N[C@@H]1C(=O)N(C)CCc2ccccc21 [Semagacestat] | specificity for dedifferentiated melanoma cells | –
Cc1cnc(Nc2ccc(OCCN3CCCC3)cc2)nc1Nc1cccc(S(=O)(=O)NC(C)(C)C)c1 [TG-101348] | specificity for dedifferentiated melanoma cells | –
Cc1c(C)c2c(c(C)c1O)CCC(C)(C(=O)O)O2 (centres unmarked) [Trolox] | – | rescue of erastin-induced decrease in cell viability ([4]; 100 μM DFO or 150 μM Trolox with erastin): almost completely rescued
COC(=O)C[C@H](NC(=O)[C@H](C)NC(=O)[C@@H](NC(=O)OCc1ccccc1)C(C)C)C(=O)CF [Z-VAD-FMK] (Cbz-Val-Ala-Asp(OMe)-CH2F) | – | rescue of apoptosis induced by staurosporine ([4]; trypan blue, 24 hr 1 μM staurosporine, Z-VAD-FMK pre-treatment 1 hr, positive control): could rescue; rescue of death induced by erastin treatment ([4]; trypan blue, 24 hr 5 μM erastin, Z-VAD-FMK pre-treatment 1 hr): could not rescue
Cc1c(N)nc([C@H](CC(N)=O)NC[C@H](N)C(N)=O)nc1C(=O)N[C@H](C(=O)N[C@H](C)[C@@H](O)[C@H](C)C(=O)N[C@H](C(=O)NCCc1nc(-c2nc(C(=O)NCCC[S+](C)C)cs2)cs1)[C@@H](C)O)[C@@H](O[C@@H]1O[C@@H](CO)[C@@H](O)[C@H](O)[C@@H]1O[C@H]1O[C@H](CO)[C@@H](O)[C@H](OC(N)=O)[C@@H]1O)c1c[nH]cn1.[Br-] [bleomycin A2] | specificity for dedifferentiated melanoma cells | –
C=CC(=O)Nc1cc2c(Nc3ccc(F)c(Cl)c3)ncnc2cc1OCCCN1CCOCC1 [canertinib] | specificity for dedifferentiated melanoma cells | –
C=C1[C@@H](C)[C@H]2[C@H](Cc3ccccc3)NC(=O)[C@]23OC(=O)/C=C/[C@H](O)CCC[C@@H](C)C/C=C/[C@H]3[C@@H]1O [cytochalasin B] | specificity for dedifferentiated melanoma cells | –
COC(=O)c1ccc2c(c1)NC(=O)/C2=C(\Nc1ccc(N(C)C(=O)CN2CCN(C)CC2)cc1)c1ccccc1 [nintedanib] | specificity for dedifferentiated melanoma cells | –
O=C(c1cc(Cc2n[nH]c(=O)c3ccccc23)ccc1F)N1CCN(C(=O)C2CC2)CC1 [olaparib] | specificity for dedifferentiated melanoma cells | –
COc1cc(/C=C/C(=O)N2CCC=CC2=O)cc(OC)c1OC [piperlongumine] | – | differentiation stage-associated trend in sensitivity ([2]; among subtypes and vemurafenib resistant lines): does not show any differentiation stage-associated trend; also recorded: no difference in sensitivity
COc1cc(Nc2ncc(F)c(Nc3ccc4c(n3)NC(=O)C(C)(C)O4)n2)cc(OC)c1OC [tamatinib] | specificity for dedifferentiated melanoma cells | –
AZD4547 | specificity for dedifferentiated melanoma cells | –
ML334 diastereomer | specificity for dedifferentiated melanoma cells | –
TNFα | – | differentiation state (up-regulation of AXL, decreased MITF or MART-1) (melanoma cell lines [5]): induced de-differentiation
B1 | – | differentiation state (up-regulation of AXL, decreased MITF or MART-1) (melanoma cell lines [5]): induced de-differentiation
